Legend:
[1] = test system: xylem; test: Phytoinjector delivery to xylem of tomato, dye transport
Text: Based on these parameters, phytoinjectors were designed with a tip diameter smaller than 35 μm and 10 μm for xylem and phloem, respectively (FIG. 1B, FIG. 13C and FIG. 13D). […] To investigate payload delivery in planta, each payload was loaded to phytoinjectors at the point of material assembly before drying. […] The injected petioles were sliced along the transverse section downstream and upstream at various distances from the injection site to investigate the presence of the delivered dyes. […] In xylem, transport analysis was conducted by tangential sectioning of the stem (FIG. 3E). […] To quantify payloads transport, the fluorescence intensity was integrated (see FIG. 3E). The normalized intensity distribution evolves spatially and temporally (FIG. 3F).

[2] = test system: petiole's xylem; test: Luciferin-luciferase bioluminescent reaction after phytoinjector delivery into petiole xylem; format: in vivo, tomato (Solanum lycopersicum); settings: luciferin in petiole's xylem; other reagents by foliar infiltration
Text: The phytoinjectors were applied in petiole vasculature near the leaflet to facilitate observation and imaging. At first, luciferin was deployed in the petiole's xylem while the other reagents were delivered by foliar infiltration to the leaf.

Molecule	transport distance upstream of injection site [1]	transport distance downstream of injection site ([1]; from root to leaves)	luminescence of leaf tissue after delivery [2]
5(6)-carboxyfluorescein diacetate	1 cm	more than 7 cm	
O=C(O)[C@H]1CSC(c2nc3ccc(O)cc3s2)=N1 [luciferin]			showed luminescence

Reference: US20230143553A1, “PRECISION DELIVERY OF MULTI-SCALE PAYLOADS TO TISSUE-SPECIFIC TARGETS IN PLANTS” (MASSACHUSETTS INSTITUTE OF TECHNOLOGY, priority 2020, published 2023)
